Entries after “also recorded” stand apart in the source; their conditions may differ.
Key:
[1] = tested on: transgenic Drosophila engineered to express the mutant huntingtin protein in all their neurons; settings: cited from earlier work
[2] = tested on: transgenic Drosophila engineered to express the mutant huntingtin protein in all their neurons; assay: Inhibition of mutant huntingtin-induced neurodegeneration of photoreceptor neurons (pseudopupil method); format: in vivo; settings: for rescue of photoreceptor neurons compared to untreated controls: FIG. 2; for suppression of photoreceptor neuron degeneration, retest: FIG. 3
Protocol: Dimebon was administered to one group of transgenic Drosophila engineered to express the mutant huntingtin protein in all their neurons. This was accomplished by cloning a foreign gene into transposable p-element DNA vectors under control of a yeast upstream activator sequence that is activated by the yeast GAL4 transcription factor. These promoter fusions were injected into fly embryos to produce transgenic animals. The foreign gene is silent until crossed to another transgenic strain of flies expressing the GAL4 gene in a tissue specific manner. The Elav>Gal4 which expresses the transgene in all neurons from birth until death was used in the experiments described.
For compound testing, 20-30 Httex1pQ93 virgins were mated to elav>Gal4 males and eggs were collected for about 20 hours at 25° C. and dispensed into vials (expected about 70% lethality from Htt effects). Upon eclosion, at least 80, 0-8 hour old flies were harvested and place on drug-containing food (20 eclosed adults per vial) and scored when 7 days old. Inhibitor-containing food was prepared just before tester flies began to emerge.
The two types of transgenic animals were crossed in order to collect enough closely matched aged controls to study. The crossed aged-matched adults (about 20 per dosing group) were placed on drug-containing food for 7 days. Animals were transferred to fresh food daily to minimize any effects caused by instability of the compounds. Survival was scored daily. The average number of photoreceptors at day zero was determined by scoring 7-10 of the newly eclosed tester siblings within six hours of eclosing. This established the baseline of degeneration at the time of exposure to drug. At day 7, animals were sacrificed and the number of photoreceptor neurons surviving was counted. […] For pseudopupil analysis, flies were decapitated and the heads are mounted in a drop of nail polish on a microscopic slide. The head was then covered with immersion oil and light is projected through the eye of the fly using a Nikon EFD-3/Optiphot-2 compound microscope with a 50× oil objective.

[3] = tested on: wildtype Drosophila fruit flies; assay: Toxicity of dimebon in wild type Drosophila (eclosion number and timing); format: in vivo; settings: FIG. 1
Protocol: Dimebon was evaluated for toxicity levels in wildtype Drosophila fruit flies. Dimebon was administered daily at doses ranging from 10 μM to 1 mM to explore its toxicity. An untreated control group was also studied in this experiment. The concentrations given were concentrations of dimebon in the food that animals drink/eat ad libitum. The food consisted of cornmeal (61.2 g), dextrose (129.4. g), yeast (32.4 g) and agar (9.3 g) in 1 liter of water. Concentrated compounds were added to melted agar food cooled to just above the point of setting (about 40° C.), mixed and dispensed.
About 500 wild type Drosophila eggs were collected on grape juice plates for 20 hours, washed with distilled water and transferred 100 per vial to grow at 25 degrees C. The adult progeny were scored after eclosing (emerging from the pupal case) beginning 10 days later to assess developmental delay and toxicity. The criteria used for toxicity were the number (%) of animals that eclose and the time of the eclosing. For example, fewer animals may emerge from the pupal case if a drug is toxic or the same number of animals may eclose but more slowly than the untreated control group.
The toxicity test employed five concentrations (10 μM, 30 μM, 100 μM, 300 μM, 1 mM) plus an untreated control and was repeated with five sets of flies. […]

[4] = tested on: transgenic Drosophila engineered to express the mutant huntingtin protein in all their neurons; assay: Climbing assay (motor function) in Drosophila model of Huntington's disease; format: in vivo
Protocol: The motor function of Drosophila obtained as described in the examples above was assessed by exploiting the strong negative geotropism of flies to climb upwards when they are tapped to the bottom of a vial. See, Le Bourg and Lint (1992) Hypergravity and aging in Drosophila melanogaster. 4. […] activity. Gerontology 38, 59-64. Animals were placed in a graduated vessel (e.g., a measuring cylinder). The distance climbed in 10 seconds was measured for each animal over 3 trials with a 5 minute rest period. In a separate experiment using tall thin plastic tubes rather than glass vials, the distance climbed in 30 seconds was also measured. Animals were scored for outcome without knowledge of treatment group. Flies were tested for functional rescue using a behavior assay (climbing assay) where the distance climbed was measured. […] In this assay, climbing was scored blind and each animal was given 3 trials that were then averaged. The climbing of 7 day old animals reared on 0, 10, 100 or 1,000 μM containing food was compared as was the climbing of animals on the day of eclosion. Two trials were performed. In the first, the ability to climb in large glass vials was monitored over 10 seconds. […] The second trial was similar to the first except that animals were tested in tall thin plastic tubes for climbing over 30 seconds. […] The data from the two independent climbing trials are plotted as individual data points in FIGS. 6A and 6B. A higher statistical power (e.g., 0.8) given the observed standard deviations and differences of the means may be achieved by doubling the size of the experiment for the highest concentration and increasing about 10 fold for the lower concentrations.

SMILES | rescue of photoreceptor neurons (historical positive control) [1] | rescue of photoreceptor neurons compared to untreated controls ([2]; 10 μM, 7 days) | suppression of photoreceptor neuron degeneration, retest ([2]; 100 μM vs zero drug controls, dihydrochloride) | rescue of photoreceptor neurons compared to untreated controls ([2]; 100 μM, 7 days on drug-containing food) | rescue of photoreceptor neurons compared to untreated controls ([2]; 1 mM, 7 days) | previously measured optimum concentration for photoreceptor rescue ([2]; concentration in food) [µM] | protection of photoreceptors, dose dependence ([2]; day 7, pseudopupil scoring) | suppression of photoreceptor neuron degeneration, retest ([2]; higher doses (300 or 1,000 μM) vs zero drug controls) | timing of emergence slowed ([3]; 1 mM dose) | toxicity (number of animals that eclose and time of eclosing) ([3]; 10 to 300 μM in the food, below 1 mM, dihydrochloride) | climbing behavior, distance climbed in 10 seconds ([4]; 1 mM (1000 μM), 7 day old animals, glass vials, FIG. 5, dihydrochloride) | raw climbing data, FIG. 6 panel A ([4]; 1 mM vs D7ND (Day 7 no drug), legend says measured over 30 seconds) | climbing behavior, distance climbed in 30 seconds ([4]; 10, 100 or 1,000 μM, 7 day old animals, tall thin plastic tubes)
C[C@@H](N)[C@H]1CC[C@H](C(=O)Nc2ccncc2)CC1 [Y-27632] | strongly rescuing | – | – | – | – | – | – | – | – | – | – | – | –
Cc1ccc2c(c1)c1c(n2CCc2ccc(C)nc2)CCN(C)C1.Cl.Cl [dimebon, 2,8-dimethyl-5-(2-(6-methyl-3-pyridyl)-ethyl)-2,3,4,5-tetrahydro-1H-pyrido[4,3-b]indole dihydrochloride] | – | lesser but still apparent rescue of neurons | significant improvement; also recorded: significant rescue | statistically significant (p=0.0014) rescue of neurons | still appeared to cause neuronal rescue, but to a lesser extent than the 100 μM or 10 μM dimebon doses | 100 | protect photoreceptors in a dose-dependant manner | no statistically demonstrable improvement | approximately 1 day | generally well tolerated; also recorded: no significant toxicity | significant difference between the control and 1000 μM; also recorded: statistically significant improvement in climbing | statistical difference between D7ND and 1 mM | no statistically demonstrable difference between treated and control groups

From patent US20070117835A1, “Methods and compositions for treating Huntington's disease” (priority 2005, published 2007)
